The record followed here is the supplement of paper PMC10307832.

What all share (assay): relative viability (nuclei count vs DMSO), 5 days (fraction); higher = more cells survive
Compound in assay [1]: C(C(=O)C(=O)O)Br [Bromopyruvate] + CC1(C)CCC(c2ccc(Cl)cc2)=C(CN2CCN(c3ccc(C(=O)NS(=O)(=O)c4ccc(N[C@H](CCN5CCOCC5)CSc5ccccc5)c(S(=O)(=O)C(F)(F)F)c4)cc3)CC2)C1 [Navitoclax] (partner 0.5 µM)
The method, boiled down:
(§1)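 Lung cancer cell lines were pin-tool dosed in 1536-well plates on the day after seeding, with either a lone drug or a fixed anchor-drug dose plus five library-drug doses (not always all listed) in √10 steps. Nuclei were counted on 4× images after 5 days. Relative viability is the ratio of treated-well to vehicle-well nuclei counts, with each value a median of duplicate plates.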

Compound in assay [2]: CC(O)(CS(=O)(=O)c1ccc(F)cc1)C(=O)Nc1ccc(C#N)c(C(F)(F)F)c1 [Bicalutamide] + N=C(N)NC(=N)NCCc1ccccc1 [Phenformin] (partner 250 µM)
An outline of the steps: as §1

Compound in assay [3]: C(C(=O)C(=O)O)Br [Bromopyruvate] + Nc1nc2[nH]cc(CCc3ccc(C(=O)N[C@@H](CCC(=O)O)C(=O)O)cc3)c2c(=O)[nH]1 [Pemetrexed] (partner 0.2 µM)
An outline of the steps: as §1

Compound in assay [4]: C(C(=O)C(=O)O)Br [Bromopyruvate] + CC(C)C[C@H](NC(=O)[C@H](Cc1ccccc1)NC(=O)c1cnccn1)B(O)O [Bortezomib] (partner 0.002 µM)
An outline of the steps:
as §1

For SK-LU-1, the relative viability came to 0.866 in assay [1] (first compound 1 µM); 0.971 in assay [1] (first compound 3.162 µM); 0.935 in assay [1] (first compound 10 µM); 0.734 in assay [1] (first compound 31.62 µM); 0.574 in assay [1] (first compound 100 µM); 0.571 in assay [2] (first compound 0.08 µM). The relative viability in assay [2] (first compound 0.253 µM) is 0.519; in assay [2] (first compound 0.8 µM) it was 0.637; in assay [2] (first compound 2.53 µM), 0.48; in assay [3] (first compound 1 µM), 0.998; in assay [3] (first compound 3.162 µM), 0.961; in assay [3] (first compound 10 µM) it was 1.02. The relative viability in assay [3] (first compound 31.62 µM) was determined as 0.886; in assay [3] (first compound 100 µM), 0.874; in assay [4] (first compound 1 µM), 1.44; in assay [4] (first compound 3.162 µM), 1.01; in assay [4] (first compound 10 µM), 1.82; in assay [4] (first compound 31.62 µM) it was 0.987. Further, the relative viability in assay [4] (first compound 100 µM) was determined as 1.27.

Regarding SW 1573, the relative viability was 0.927 in assay [1] (first compound 1 µM); 1.17 in assay [1] (first compound 3.162 µM); 1.02 in assay [1] (first compound 10 µM); 1.11 in assay [1] (first compound 31.62 µM); 0.487 in assay [1] (first compound 100 µM); 0.413 in assay [2] (first compound 0.08 µM). Moreover, the relative viability in assay [2] (first compound 0.8 µM) amounted to 0.377; in assay [2] (first compound 2.53 µM) it was 0.366; in assay [3] (first compound 1 µM), 0.783; in assay [3] (first compound 3.162 µM), 0.792; in assay [3] (first compound 10 µM) it was 0.899; in assay [3] (first compound 31.62 µM), 0.436. The relative viability in assay [3] (first compound 100 µM) was found to be 0.0549; in assay [4] (first compound 1 µM), 0.935; in assay [4] (first compound 3.162 µM), 1.02; in assay [4] (first compound 10 µM), 1.18; in assay [4] (first compound 31.62 µM) it was 1.08; in assay [4] (first compound 100 µM), 0.392.
